# Results as given in PMC12062478, “Screening herbal and natural product libraries to aid discovery of novel allosteric modulators of human P2X7” (Purinergic Signalling, 2024).
# Tests used:
# P2X7 [1] = target: T1, P2X7 (Homo sapiens, UniProt Q99572); assay: fura-2 intracellular calcium assay in HEK-hP2X7 cells; format: cell-based; settings: fura-2-loaded HEK-hP2X7, 10 min pre-treatment, 1 mM ATP
# T1 construct: expressed in transfected cells
# T1 sequence (Q99572 1-595): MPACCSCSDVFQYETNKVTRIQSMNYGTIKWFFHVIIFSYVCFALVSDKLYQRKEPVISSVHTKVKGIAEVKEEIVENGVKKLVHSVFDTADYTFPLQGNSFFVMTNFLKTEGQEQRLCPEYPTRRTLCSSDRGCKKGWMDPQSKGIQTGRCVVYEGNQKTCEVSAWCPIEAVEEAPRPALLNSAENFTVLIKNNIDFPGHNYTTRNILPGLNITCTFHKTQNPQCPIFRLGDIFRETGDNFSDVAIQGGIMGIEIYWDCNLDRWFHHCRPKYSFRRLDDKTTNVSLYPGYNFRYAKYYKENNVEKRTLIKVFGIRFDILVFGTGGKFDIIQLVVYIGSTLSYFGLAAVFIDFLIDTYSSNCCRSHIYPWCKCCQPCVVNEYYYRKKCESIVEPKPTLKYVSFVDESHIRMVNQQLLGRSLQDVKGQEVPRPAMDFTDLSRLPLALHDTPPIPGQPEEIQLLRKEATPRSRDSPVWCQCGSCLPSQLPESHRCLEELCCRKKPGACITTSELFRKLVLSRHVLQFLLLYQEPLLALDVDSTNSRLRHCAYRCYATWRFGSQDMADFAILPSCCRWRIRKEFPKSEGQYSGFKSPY
# Procedure: Supplementary Figure 3: Validation of P2X7 antagonist activity using a fura-2 assay. HEK-hP2X7 cells were loaded with fura-2AM (2µM) to measure intracellular calcium responses to ATP. Cells were loaded for 45 minutes at 37 °C and then pre-treated with various concentrations of test compounds for 10 minutes. For full methodological details please see [1]. Responses to 1mM ATP were assessed over 300 seconds using a Flexstation 3 plate reader. Ratiometric fura-2 data was converted to area under curve.
# P2X7 [2] = target: T1, P2X7; assay: ATP-induced YO-PRO-1 dye uptake in HEK-hP2X7 cells; format: cell-based; settings: for IC50: HEK-hP2X7, 10 min pre-treatment, read-out: IC50 value (95% CI); for Effect on P2X7 responses: purified glycosides/aglycone from potentiating extracts; for P2X7 response (% of control): compound 10 µM injected 60 s before ATP; for Effect on YO-PRO-1 uptake at high concentrations: > 30 µM
# Procedure: HEK-hP2X7 or HEK-hP2X4 cells were plated at 2.5 × 10^4 cells per well (100 µL volume) the day before experiments into poly-D-lysine (Merck Millipore) coated 96-well plates (NUNC, Fisher Scientific #167-008). The membrane impermeant dye YO-PRO-1 iodide (Life Technologies, Fisher Scientific) was used at a final concentration of 2 µM in low divalent buffer (145 mM NaCl, 5 mM KCl, 0.2 mM CaCl2, 13 mM glucose, 10 mM HEPES, pH 7.3, osm 300–310). Media were removed from the plate, and 90 µL of YO-PRO-1 buffer was added per well. Plates were warmed to 37 °C for 5 min before recording. Data was acquired on a Flexstation 3 plate reader (Molecular Devices) using excitation wavelength 490 nm, emission wavelength 520 nm, and six reads per well (PMT medium). […] […] Pipette height was set to 80 µL and the rate of injection was 4.
# YO-PRO-1 dye uptake assay data is plotted as a percentage of control where control responses are measured in the absence of plant extract. Cell viability data is plotted as a percentage of control or background-corrected fluorescence data. Concentration–response graphs were plotted using GraphPad Prism v6 with a non-linear regression fit (variable slope). IC50 values were generated from collated datasets from a minimum of three independent experiments. Statistical differences were determined by one-way ANOVA statistical tests performed using GraphPad Prism v6 with Dunnett’s multiple comparison post hoc test. Significance was taken as P ≤ 0.05.
# We acquired a natural product library (Set IV) containing 419 compounds from NCI DTP and tested these on P2X7 responses using a YO-PRO-1 dye uptake in HEK293 cells stably expressing human P2X7 (HEK-hP2X7). […] This allowed us to assess for any immediate effect of the injected compound, and secondly, it allowed for any potential negative modulators to be pre-incubated with P2X7.
# hP2X7 [3] = target: T2, hP2X7 (Homo sapiens, UniProt Q99572); assay: Whole-cell patch-clamp electrophysiology in HEK-hP2X7 cells; format: cell-based; settings: 10 µM with ATP 100 µM, 5-s application, −60 mV
# T2 sequence (Q99572 1-595): T1 sequence (Q99572 1-595)
# Procedure: Stably expressing HEK-hP2X7 cells were plated onto 13-mm glass coverslips 24 h prior to use. Membrane currents were recorded in the whole-cell patch-clamp configuration using an EPC10 amplifier (HEKA Elektronik) and borosilicate glass electrodes (TF-150 World Precision Instruments), resistance […] when filled with standard internal solution (145 mM NaCl, 10 mM HEPES, 10 mM EGTA, pH 7.3). Cells were voltage-clamped at − 60 mV, and dialysis of intracellular contents was performed for 1 min prior to experimental procedures. Cells were continuously perfused by gravity feed with standard divalent buffer solution (145 mM NaCl, 5 mM KCl, 2 mM CaCl2, 1 mM MgCl2, 13 mM glucose, 10 mM HEPES, pH 7.3) prior to seal formation, and low divalent buffer solution was used for agonist and PAM application. Agonists were applied using a computer-controlled fast-flow system (RSC-160; Bio-Logic Scientific Instruments) with the perfusion capillaries placed in close proximity to the cell under investigation.
# Fig. 6 Dioscin enhances P2X7-dependent pore formation and potentiates channel opening. A Dioscorea nipponica (organic) plant extract (30 µg/mL) increased ATP-dependent YO-PRO-1 iodide uptake. AZ10606120 (10 µM, grey bars) was added to block hP2X7. B YO-PRO-1 uptake following a co-stimulation of HEK-hP2X7 cells with 200 µM ATP ± the named compounds in the presence or absence of AZ10606120. YO-PRO-1 uptake was quantified between 50 and 300 s (n = 5). C Whole-cell patch-clamp recordings were performed at room temperature. Cells were voltage-clamped at − 60 mV, and responses to a 5-s stimulation of ATP (100 µM) followed by a 5-s stimulation of ATP (100 µM) + dioscin/diosgenin (10 µM) were measured from HEK-hP2X7 cells. Representative traces are shown. D Summary of normalised current amplitudes represented as a fold change compared to ATP responses in the absence of dioscin/diosgenin (n = 10–18 cells). E Concentration response to ATP in the presence of dioscin (10 µM, green) or vehicle (DMSO, black) using YO-PRO-1 uptake assay in HEK-hP2X7 and F HEK-293 cells. […]
# hP2X7 [4] = target: T2, hP2X7; settings: inhibition of hP2X7 currents by electrophysiology; read-out: IC50 value; cited from earlier work
# [5] = screen for potential negative allosteric modulators
compound,measurement,setting,value
COc1ccc2cc3[n+](cc2c1OC)CCc1cc2c(cc1-3)OCO2 [Berberine],P2X7 antagonist activity on ATP-induced calcium responses,P2X7 [1],demonstrated P2X7 antagonist activity
same,IC50,P2X7 [2]; ATP 1 mM,5.17 µM
"C[C@@H]1CC[C@@]2(OC1)O[C@H]1C[C@H]3[C@@H]4CC=C5C[C@@H](O)CC[C@]5(C)[C@H]4CC[C@]3(C)[C@H]1[C@@H]2C [Diosgenin, diosgenin]",Effect on P2X7 responses,P2X7 [2],could not potentiate responses
same,Potentiation of hP2X7 ion channel opening,hP2X7 [3],not capable of potentiating P2X7 channel opening
"O=C(O[C@@H]1Cc2c(O)cc(O)cc2O[C@@H]1c1cc(O)c(O)c(O)c1)c1cc(O)c(O)c(O)c1 [EGCG, epigallocatechin gallate]",P2X7 antagonist activity on ATP-induced calcium responses,P2X7 [1],demonstrated P2X7 antagonist activity
CC(=O)O[C@H]1C[C@]2(O)[C@@H]3CC[C@@H]4C[C@@H](O)CC[C@]4(C)[C@H]3CC[C@]2(C)[C@H]1C1=CC(=O)OC1 [Oleandrogenin],P2X7 response (% of control),P2X7 [2]; [5],42.33 % of control
CCCCCCCCCCCCCCCC(=O)O [Palmitic acid],Effect on YO-PRO-1 uptake at high concentrations,P2X7 [2]; HEK-hP2X7,reduction of YO-PRO-1 uptake in hP2X7 cells at high concentrations
"CC(=O)CCCCn1c(=O)c2c(ncn2C)n(C)c1=O [Pentoxifylline, reference compound]",P2X7 response (% of control),P2X7 [2]; screen for PAM activity,140.48 % of control
CC(C)=CCC[C@@H](C)C1=C(O)C(=O)C(C)=CC1=O [Perezone],P2X7 response (% of control),P2X7 [2]; screen for PAM activity,148.44 % of control
COc1cc([C@@H]2c3cc4c(cc3[C@H](O)[C@H]3COC(=O)[C@@H]23)OCO4)cc(OC)c1OC [Picropodophyllin],P2X7 response (% of control),P2X7 [2]; screen for PAM activity,145.86 % of control
CC1(C)C[C@]23[C@@H]4COC(=O)[C@H]2CC[C@H]1[C@@H]3CC4=O [Quadrone],P2X7 response (% of control),P2X7 [2]; [5],40.82 % of control
CO[C@H]1[C@@H](O)[C@@H](C)O[C@@H](OC2CCC3(C)C(CCC4C3C(O)CC3(C)C(C5=CC(=O)OC5)CCC43O)C2)[C@@H]1O (some centres unmarked) [Sarnovid],P2X7 response (% of control),P2X7 [2]; [5],38.95 % of control
COc1cc2ccc(=O)oc2cc1O [Scopoletin],Effect on YO-PRO-1 uptake at high concentrations,P2X7 [2]; HEK-hP2X7,reduction of YO-PRO-1 uptake in hP2X7 cells at high concentrations
same,IC50,P2X7 [2]; ATP 1 mM,39.9 µM
C=C(NC(=O)C(=C)NC(=O)c1csc(C2=N[C@@H]3c4csc(n4)[C@H]4NC(=O)c5csc(n5)[C@H]([C@](C)(O)[C@@H](C)O)NC(=O)[C@H]5CSC(=N5)/C(=C/C)NC(=O)[C@H]([C@@H](C)O)NC(=O)c5csc(n5)[C@]3(CC2)NC(=O)[C@H](C)NC(=O)C(=C)NC(=O)C(=C)NC(=O)[C@H](C(C)C)N[C@@H]2C=Cc3c([C@H](C)O)cc(nc3[C@H]2O)C(=O)O[C@@H]4C)n1)C(N)=O [Siomycin A],P2X7 response (% of control),P2X7 [2]; screen for PAM activity,157.10 % of control
COC1=C(N)C(=O)c2nc(-c3nc(C(=O)O)c(C)c(-c4ccc(OC)c(OC)c4O)c3N)ccc2C1=O [Streptonigrin],P2X7 response (% of control),P2X7 [2]; screen for PAM activity,139.02 % of control
COc1ccc2c(c1OC)CN1CCc3cc4c(cc3C1C2)OCO4 (centres unmarked) [Tetrahydroberberine],Effect on ATP-mediated YO-PRO-1 uptake,"P2X7 [2]; 10 µM, 10 min pre-incubation, ATP 1 mM",able to reduce ATP-mediated YO-PRO-1 uptake
same,P2X7 response (% of control),P2X7 [2]; [5],26.9 % of control
CO[C@@H]1/C=C/O[C@@]2(C)Oc3c(C)c(O)c4c(c3C2=O)C(=N[C@@H]2CC[C@@H](O)O[C@H]2C)C=C(NC(=O)/C(C)=C\C(=O)[C@@H]2C[C@@H]2[C@H](O)[C@@H](C)[C@@H](O)[C@@H](C)[C@H](OC(C)=O)[C@@H]1C)C4=O [Tolypromycin Y],P2X7 response (% of control),P2X7 [2]; [5],47.05 % of control
COc1cc(C=O)ccc1O [Vanilline],P2X7 response (% of control),P2X7 [2]; screen for PAM activity,158.27 % of control
COC(=O)/C(=C1/OC(=O)C(c2ccccc2)=C1O)c1ccccc1 [Vulpinic acid],P2X7 response (% of control),P2X7 [2]; screen for PAM activity,150.3 % of control
CC1=C(C)C(=O)O[C@@H]([C@](C)(O)[C@H]2CC[C@H]3[C@@H]4[C@@H]5O[C@@H]5[C@@]5(O)CC=CC(=O)[C@]5(C)[C@H]4CC[C@]23C)C1 [Withanolide A],P2X7 response (% of control),P2X7 [2]; screen for PAM activity,149.93 % of control
O=C(O)c1cc(O)c(O)c(O)c1 [gallic acid],IC50,hP2X7 [4],4.26 µM
COc1ccc2c(c1)CC=C(CO)c1cc3c(cc1-2)OCO3 [tenuifolin],Effect on P2X7 responses,P2X7 [2],no effect on P2X7 responses
COc1cc([C@@H]2c3cc4c(c(O)c3C[C@H]3COC(=O)[C@@H]32)OCO4)cc(OC)c1OC [Β-peltatin],P2X7 response (% of control),P2X7 [2]; [5],31.98 % of control
Erythromycin cyclopentylproprionate,P2X7 response (% of control),P2X7 [2]; screen for PAM activity,126.67 % of control
Hexopyranuronic acid,P2X7 response (% of control),P2X7 [2]; screen for PAM activity,147.11 % of control
Medicarpin,P2X7 response (% of control),P2X7 [2]; screen for PAM activity,140.60 % of control
Monoacetyl verrucan A,P2X7 response (% of control),P2X7 [2]; screen for PAM activity,170.65 % of control
Ossamycin,P2X7 response (% of control),P2X7 [2]; screen for PAM activity,145.55 % of control
Predorine,P2X7 response (% of control),P2X7 [2]; screen for PAM activity,740.31 % of control
Scopafungin,Sensitivity of the potentiated ATP response to P2X7 antagonist AZ10606120,P2X7 [2]; AZ10606120 10 µM,"could be prevented by pre-treatment with the P2X7 selective antagonist, AZ10606120"
same,YO-PRO-1 uptake in the absence of ATP,P2X7 [2]; HEK-hP2X7,increase in YO-PRO-1 uptake in the absence of ATP
same,Effect on ATP concentration–response curve,P2X7 [2]; compound 10 µM,increase the maximum response to ATP and increase the sensitivity to ATP
same,P2X7 response (% of control),P2X7 [2]; screen for PAM activity,159.83 % of control
